What was measured:
5-HT1A human receptors = biological target: T1, 5-HT1A human receptors (Homo sapiens, UniProt P08908); test: 5-HT1A Radioligand Receptor Binding Assay ([3H]-8-OH-DPAT, CHO cell membranes); conditions: compound at 10^-7 M, singlicate; [3H]-8-OH-DPAT 0.6-0.7 nM; read-out: 5-HT1A receptor binding assay % inhib. (10^-7 M)
T1 construct: expressed in transfected cells; host or cells: CHO cells
T1 sequence (P08908 1-422): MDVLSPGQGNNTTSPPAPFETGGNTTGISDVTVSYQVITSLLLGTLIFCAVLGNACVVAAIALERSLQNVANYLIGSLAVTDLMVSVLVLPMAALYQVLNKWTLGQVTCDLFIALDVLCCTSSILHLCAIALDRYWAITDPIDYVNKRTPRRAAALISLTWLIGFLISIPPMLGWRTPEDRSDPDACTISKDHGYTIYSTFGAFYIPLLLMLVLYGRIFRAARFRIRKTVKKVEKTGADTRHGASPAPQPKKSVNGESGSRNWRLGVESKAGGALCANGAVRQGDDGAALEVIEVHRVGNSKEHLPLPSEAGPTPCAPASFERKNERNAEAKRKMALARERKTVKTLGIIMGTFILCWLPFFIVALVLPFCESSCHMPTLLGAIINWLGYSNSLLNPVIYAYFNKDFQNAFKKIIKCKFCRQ
Method: Membranes from CHO cells, expressing 5-HT1A human receptors were suspended in incubation buffer.
The compounds were tested in singlicate at one concentration (10^-7 M) in a total volume of 1000 µl. 980 µl of diluted membranes, 10 µl DMSO or unlabelled ligand and 10 µl of [^3H]-8-OH-DPAT (0.6-0.7 nM) were incubated for 60 min at 27 °C. The reaction was stopped by rapid filtration through Tomtec cell Harvester (48 wells) using Filtermat B (presoaked in 0.1% PEI) filters. […] Non specific binding was determined in the presence of 5-HT (10^-5 M).
(§1) The specific radioligand binding to the receptor was defined by the difference between total binding and non specific binding, determined in the presence of an excess of unlabelled ligand. Results were expressed as percentage of control specific binding obtained in the presence of the compounds.
The affinity values (IC50) for the compounds were obtained by a non linear least squares regression analysis on the basis of a one binding site model.

D4 human receptors = biological target: T2, D4 human receptors (Homo sapiens, UniProt P21917); test: D4 Radioligand Receptor Binding Assay ([3H] YM-09151-2, CHO cell membranes); conditions: compound at 10^-7 M, singlicate; [3H] YM-09151-2 0.15-0.25 nM; read-out: D4 receptor binding assay % inhib. (10^-7 M)
T2 construct: expressed in transfected cells; host or cells: CHO cells
T2 sequence (P21917 1-419): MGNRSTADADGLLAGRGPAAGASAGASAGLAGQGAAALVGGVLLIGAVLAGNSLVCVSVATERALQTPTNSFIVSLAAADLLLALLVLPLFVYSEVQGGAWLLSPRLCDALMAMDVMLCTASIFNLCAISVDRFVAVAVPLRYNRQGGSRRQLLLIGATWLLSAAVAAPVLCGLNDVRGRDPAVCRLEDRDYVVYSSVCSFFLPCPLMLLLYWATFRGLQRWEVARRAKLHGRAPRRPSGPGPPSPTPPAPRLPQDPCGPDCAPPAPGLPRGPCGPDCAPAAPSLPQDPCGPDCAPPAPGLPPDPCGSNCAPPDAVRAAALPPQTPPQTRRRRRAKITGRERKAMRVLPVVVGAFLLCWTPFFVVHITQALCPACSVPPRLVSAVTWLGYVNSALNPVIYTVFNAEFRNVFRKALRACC
Method: Membranes from CHO cells, expressing D4 human receptors were suspended in incubation buffer.
Binding assays were performed in MultiProbe 204 pipetting system (Packard), according to a predetermined mapping, consistent with the software Screen. The compounds were tested in singlicate at one concentration (10^-7 M) in a total volume of 1000 µl (980 µl of diluted membranes, 10 µl DMSO or unlabelled ligand and 10 µl of [^3H] YM-09151-2 (0.15-0.25 nM). After incubation for 120 min at 27 °C, the reaction was stopped by rapid filtration through Tomtec cell Harvester (48 wells) using Filtermat B (presoaked in 0.1% PEI) filters. Filters were washed with ice-cold 50 mM Tris-HCl (pH 7.4) buffer (9 x 700 µl), dryed, covered with MeltiLex B/HS (Wallac) scintillator sheets and heated in oven at 80-90 °C for about 10 min, transferred into plastic sample bags (Wallac), sealed and put into 1024 Beta Plate scintillation counter (Wallac). Non specific binding was determined in the presence of clozapine dissolved in DMSO to a final concentration of 10^-5 M.
as §1

CHO/5-HT1A cells = biological target: T3, CHO/5-HT1A cells (Homo sapiens, UniProt P08908); test: 5-HT1A Functional assay (cAMP); format: cell-based; conditions: 10 µM compound, % inhibition of the cAMP accumulation induced by 10 µM FSK; for inhibition at 10 µM: read-out: 5-HT1A cAMP % inhib.
T3 construct: expressed in transfected cells; host or cells: CHO/5-HT1A cells
T3 sequence (P08908 1-422): T1 sequence (P08908 1-422)
Method: CHO/5-HT1A cells were random seeded at a density of about 200,000/well in 24 well plates the day prior to the experiment. On the day of the experiment, cells were pretreated for 15 min at 37 °C with 500 µM isobuthylmethylxantine (IBMX) dissolved in culture medium without serum. Wells were then divided in different groups in duplicate as follows: control, 10 µM FSK, 10 µM FSK + 1 µM 5-HT as positive standard and 10 µM FSK + 10 µM of the different compound under evaluation. Sample solutions were added and incubated for additional 15 min at 37 °C. After incubation, medium was aspirated and the reaction stopped by adding 200 µl of lysis buffer. Plates were shaken for 5 min, then the lysate was removed and samples were stored at 4 °C until the day of the assay. For the cAMP evaluation, samples were properly diluted and the cAMP content was measured by an enzymeimmunoassay system.

Compound	inhibition at 0.1 µM (5-HT1A human receptors) [%]	inhibition at 0.1 µM (D4 human receptors) [%]	inhibition at 10 µM (CHO/5-HT1A cells) [%]	5-HT1A cAMP % inhib. (CHO/5-HT1A cells) [%]
O=c1n(CCO)c2ccccc2n1CCCCN1CCN(c2ccccn2)CC1 [compound 59]	75	51	–	–
O=c1n(CCO)c2ccccc2n1CCCCN1CCc2c([nH]c3ccccc23)C1 [compound 62]	73	96	–	–
O=c1n(CCO)c2ccccc2n1CCCCN1CC=C(c2ccccc2)CC1 [compound 65]	52	74	–	–
O=c1n(CCO)c2ccccc2n1CCCCN1CCN(c2ccc(Cl)c(Cl)c2)CC1 [compound 66]	65	99	–	–
COc1ccccc1N1CCN(CCCCn2c(=O)n(CCO)c3ccccc32)CC1 [compound 74]	92	62	–	–
CCNC(=O)OCCn1c(=O)n(CCCCN2CCN(c3ccccc3)CC2)c2ccccc21 [compound 75]	67	54	–	–
O=c1n(CCN2CCCCC2)c2ccccc2n1CCN1CCN(c2cccc(C(F)(F)F)c2)CC1 [compound 149]	88	35	–	–
O=c1n(CCN2CC=C(c3ccccc3)CC2)c2ccccc2n1CCN1CCCCC1 [compound 150]	57	52	–	–
COc1ccccc1N1CCN(CCn2c(=O)n(CCN3CCCCC3)c3ccccc32)CC1 [compound 159]	85	50	–	–
CCNC(=O)OCCn1c(=O)n(CCN2CCN(c3ccccc3OC)CC2)c2ccccc21 [compound 216]	92	44	–	–
O=c1n(CCN2CCOCC2)c2ccccc2n1CCN1CCN(c2cccc(Cl)c2)CC1 [compound 224]	98	51	–	–
O=c1n(CCN2CC=C(c3ccccc3)CC2)c2ccccc2n1CCN1CCOCC1 [compound 229]	67	34	–	–
CS(=O)(=O)NCCn1c(=O)n(CCN2CCN(c3cccc(Cl)c3)CC2)c2ccccc21 [compound 241]	69	32	–	–
COc1ccccc1N1CCN(CCn2c(=O)n(CCNS(C)(=O)=O)c3ccccc32)CC1 [compound 255]	58	33	–	–
Cc1cccc(N2CCN(CCn3c(=O)n(CCNS(C)(=O)=O)c4ccccc43)CC2)c1 [compound 256]	59	51	–	–
O=c1n(C/C=C\CN2CCN(c3cccc(Cl)c3)CC2)c2ccccc2n1CCN1CCOCC1 [compound 263]	–	–	63	–
O=c1n(CC=CCN2CCc3c([nH]c4ccccc34)C2)c2ccccc2n1CCN1CCOCC1 [compound 265]	55	78	–	–
COCCn1c(=O)n(CC=CCN2CCN(c3cccc(Cl)c3)CC2)c2ccccc21 [compound 280]	93	38	–	–
COCCn1c(=O)n(CC=CCN2CCN(c3cccc(C(F)(F)F)c3)CC2)c2ccccc21 [compound 284]	–	–	82	–
COCCn1c(=O)n(C/C=C\CN2CCN(c3ccc(Cl)c(Cl)c3)CC2)c2ccccc21 [compound 286]	65	87	–	–

Compound	inhibition at 0.1 µM (5-HT1A human receptors) [%]	inhibition at 0.1 µM (D4 human receptors) [%]	inhibition at 10 µM (CHO/5-HT1A cells) [%]	5-HT1A cAMP % inhib. (CHO/5-HT1A cells) [%]
COCCn1c(=O)n(C/C=C/CN2CCN(c3ccccc3)CC2)c2ccccc21 [compound 293]	89	32	–	–
COCCn1c(=O)n(C/C=C/CN2CCN(c3ccccn3)CC2)c2ccccc21 [compound 296]	–	–	82	–
COCCn1c(=O)n(C/C=C/CN2CCN(c3cccc(Cl)c3)CC2)c2ccccc21 [compound 297]	–	–	74	–
COCCn1c(=O)n(CC=CCN2CCN(c3cccc(C(F)(F)F)c3)CC2)c2ccccc21 [compound 301]	–	–	–	83
COCCn1c(=O)n(C/C=C/CN2CCN(c3ccc(Cl)c(Cl)c3)CC2)c2ccccc21 [compound 303]	71	70	–	–
O=c1n(C/C=C\CN2CCN(C(c3ccccc3)c3ccc(Cl)cc3)CC2)c2ccccc2n1CCN1CCCCC1 (stereo not drawn) [compound 311]	59	60	–	–
O=c1n(C/C=C\CN2CCc3c([nH]c4ccccc34)C2)c2ccccc2n1CCN1CCCCC1 [compound 316]	72	94	–	–
O=c1n(C/C=C\CN2CC=C(c3ccccc3)CC2)c2ccccc2n1CCN1CCCCC1 [compound 319]	94	70	–	–
O=c1n(C/C=C/CN2CCN(c3cccc(Cl)c3)CC2)c2ccccc2n1CCN1CCOCC1 [compound 348]	99	51	–	–
O=c1n(C/C=C\CN2CCN(c3ccccc3)CC2)c2ccccc2n1CCO [compound 361]	86	46	–	–
O=c1n(C/C=C\CN2CCN(c3ccccn3)CC2)c2ccccc2n1CCO [compound 364]	77	36	–	–
O=c1n(C/C=C\CN2CCc3c([nH]c4ccccc34)C2)c2ccccc2n1CCO [compound 367]	61	90	–	–
O=c1n(C/C=C\CN2CCN(c3ccc(Cl)c(Cl)c3)CC2)c2ccccc2n1CCO [compound 371]	59	95	–	–
O=c1n(C/C=C/CN2CCN(c3ccccc3)CC2)c2ccccc2n1CCO [compound 378]	77	35	–	–
CCNC(=O)OCCn1c(=O)n(C/C=C\CN2CCN(c3ccccc3)CC2)c2ccccc21 [compound 395]	86	32	–	–
CCNC(=O)OCCn1c(=O)n(C/C=C/CN2CCN(c3ccccc3)CC2)c2ccccc21 [compound 412]	93	39	–	–
CS(=O)(=O)NCCn1c(=O)n(C/C=C\CN2CCc3c([nH]c4ccccc34)C2)c2ccccc21 [compound 501]	70	63	–	–
CS(=O)(=O)NCCn1c(=O)n(C/C=C\CN2CCN(c3ccc(Cl)c(Cl)c3)CC2)c2ccccc21 [compound 505]	78	58	–	–
CS(=O)(=O)NCCn1c(=O)n(C/C=C/CN2CCN(c3ccc(Cl)c(Cl)c3)CC2)c2ccccc21 [compound 527]	73	36	–	–
COc1ccccc1N1CCN(C/C=C/Cn2c(=O)n(CCNS(C)(=O)=O)c3ccccc32)CC1 [compound 535]	97	39	–	–

— EP1322622B1, “NEW N, N'-DISUBSTITUTED BENZIMIDAZOLONE DERIVATIVES WITH AFFINITY AT THE SEROTONIN AND DOPAMINE RECEPTORS” (Sprout Pharmaceuticals, Inc., priority 2000, dated 2002)
